{"source": "paper PMC3097170", "about": "(The Journal of pharmacology and experimental therapeutics, 2011)", "key": {"[1]": {"target": "DOR homomers (Mus musculus, UniProt P32300)", "sequence (P32300 whole entry)": "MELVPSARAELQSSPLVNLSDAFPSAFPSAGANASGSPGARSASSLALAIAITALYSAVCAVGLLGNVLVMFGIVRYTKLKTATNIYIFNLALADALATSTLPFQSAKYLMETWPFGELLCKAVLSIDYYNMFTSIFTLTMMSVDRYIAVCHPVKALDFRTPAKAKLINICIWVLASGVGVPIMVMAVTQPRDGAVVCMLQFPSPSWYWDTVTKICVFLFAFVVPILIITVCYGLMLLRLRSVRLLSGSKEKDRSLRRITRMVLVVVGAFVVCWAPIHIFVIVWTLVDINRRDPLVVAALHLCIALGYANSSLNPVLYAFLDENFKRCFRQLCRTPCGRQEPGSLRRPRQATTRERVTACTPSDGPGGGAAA", "format": "cell-based, murine"}, "[2]": {"target": "MOR homomers (Mus musculus, UniProt P42866)", "sequence (P42866 whole entry)": "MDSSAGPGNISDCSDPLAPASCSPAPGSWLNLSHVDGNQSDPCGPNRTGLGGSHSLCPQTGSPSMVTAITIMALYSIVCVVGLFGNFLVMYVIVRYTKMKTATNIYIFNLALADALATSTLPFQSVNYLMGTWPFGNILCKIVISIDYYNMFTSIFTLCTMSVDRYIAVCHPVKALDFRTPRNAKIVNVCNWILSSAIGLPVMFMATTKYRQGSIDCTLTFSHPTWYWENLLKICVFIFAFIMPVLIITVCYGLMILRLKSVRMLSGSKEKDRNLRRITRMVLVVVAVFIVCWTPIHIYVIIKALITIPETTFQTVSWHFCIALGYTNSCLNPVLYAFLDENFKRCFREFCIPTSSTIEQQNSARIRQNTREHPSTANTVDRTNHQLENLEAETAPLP", "format": "cell-based, murine", "conditions": "DOR/MOR co-expressing cells"}, "[3]": {"target": "T1, DOR (Mus musculus, UniProt P32300)", "T1 sequence (P32300 whole entry)": "as the sequence (P32300 whole entry) above"}, "[4]": {"target": "T2, DOR/MOR (Mus musculus, UniProt P32300+P42866)", "T2 sequence (P42866 whole entry)": "as the sequence (P42866 whole entry) above", "T2 sequence (P32300 whole entry)": "as the sequence (P32300 whole entry) above"}, "[5]": {"target": "DOR/MOR heteromers (Mus musculus, UniProt P32300+P42866)", "sequence (P42866 whole entry)": "as the sequence (P42866 whole entry) above", "sequence (P32300 whole entry)": "as the sequence (P32300 whole entry) above", "format": "cell-based, murine"}, "[6]": {"target": "T3, MOR (Mus musculus, UniProt P42866)", "T3 sequence (P42866 whole entry)": "as the sequence (P42866 whole entry) above"}, "[7]": {"target": "T3, MOR", "remark": "listed apart in the source"}, "[8]": {"target": "T1, DOR", "remark": "listed apart in the source"}, "[9]": {"system": "DOR", "conditions": "cited from earlier work"}, "[10]": {"target": "MOR", "conditions": "cited from earlier work"}, "[11]": {"target": "T1, DOR", "experiment": "cell-based", "conditions": "Log IC50"}, "[12]": {"target": "T2, DOR/MOR", "experiment": "cell-based"}}, "note": "Where “and” joins values, the source holds several entries; their conditions need not be identical. Identical values can stand only once. Counter-ions that a name gives are not always drawn. Like-named read-outs stand apart in the source and are kept apart here."}
{"smiles": "C[C@@H](NC(=O)[C@@H](N)Cc1ccc(O)cc1)C(=O)NCC(=O)N(C)[C@@H](Cc1ccccc1)C(=O)NCCO", "note": "[DAMGO, [D-Ala2, NMe-Phe4, Gly-ol5]-enkephalin]", "values": [{"measurement": "agonist-induced endocytosis of DOR homomers", "setting": "[1]", "value": "but not DOR homomers"}, {"measurement": "agonist-induced endocytosis of MOR homomers", "setting": "[2]; 1 μM, 30 minutes", "value": "promoted endocytosis"}, {"measurement": "agonist-induced endocytosis of DOR", "setting": "[3]", "value": "not endocytosed"}, {"measurement": "Emax (RFU)", "setting": "[4]", "value": "956 ± 56", "unit": "RFU"}, {"measurement": "agonist-induced endocytosis of DOR/MOR heteromers", "setting": "[5]", "value": "promoted endocytosis"}, {"measurement": "agonist-induced endocytosis of MOR", "setting": "[6]; 1 μM agonist, 30 minutes, cells expressing MOR alone", "value": "endocytosed"}, {"measurement": "Emax (RFU)", "setting": "[7]", "value": "735 ± 51", "unit": "RFU"}, {"measurement": "Emax (RFU)", "setting": "[8]", "value": "582 ± 55", "unit": "RFU"}]}
{"smiles": "Oc1ccc2c3c1O[C@H]1c4oc5ccccc5c4C[C@@]4(O)[C@@H](C2)N(CC2CC2)CC[C@]314", "note": "[NTB, naltriben mesylate]", "values": [{"measurement": "fold higher affinity for DOR over MOR", "setting": "[9]; DOR over MOR, ref Raynor et al., 1994, Kim et al., 2001", "value": "> 100", "unit": "fold"}, {"measurement": "Ki", "setting": "[9]; read-out: Ki for DOR, ref Raynor et al., 1994, Kim et al., 2001", "value": 0.013, "unit": "nM"}, {"measurement": "Ki", "setting": "[10]; read-out: Ki for MOR, ref Raynor et al., 1994, Kim et al., 2001", "value": 12, "unit": "nM"}, {"measurement": "inhibition of methadone- and DAMGO-induced endocytosis of MOR homomers", "setting": "[2]; NTB 0.05 μM to 1 μM, 20 minutes", "value": "inhibited by the highest concentration"}, {"measurement": "inhibition of DOR endocytosis in response to DPDPE", "setting": "[3]", "value": "did block endocytosis"}, {"measurement": "% of maximal inhibition", "setting": "[4]", "value": "34 ±7 ^### % and 31 ± 5 %"}, {"measurement": "block of DPDPE signaling", "setting": "[4]", "value": "effectively blocked signaling"}, {"measurement": "inhibition of methadone- and DAMGO-induced endocytosis of DOR/MOR heteromers", "setting": "[5]", "value": "significantly inhibited"}, {"measurement": "inhibition of MOR endocytosis in cells expressing only MOR", "setting": "[6]", "value": "did not block endocytosis"}, {"measurement": "inhibition of DAMGO-mediated signaling", "setting": "[7]", "value": "52 ± 4", "unit": "%"}, {"measurement": "inhibition of methadone-mediated signaling", "setting": "[7]", "value": "63 ± 10", "unit": "%"}, {"measurement": "IC50", "setting": "[11]", "value": "158 nM and 126 nM"}, {"measurement": "IC50", "setting": "[12]", "value": 251, "unit": "nM"}, {"measurement": "% of maximal inhibition", "setting": "[8]", "value": "87 ± 2% and 87 ± 12%"}, {"measurement": "block of DPDPE signaling", "setting": "[8]", "value": "effectively blocked signaling"}]}
{"smiles": "Oc1ccc2c3c1O[C@H]1c4[nH]c5ccccc5c4C[C@@]4(O)[C@@H](C2)N(CC2CC2)CC[C@]314", "note": "[NTI, Naltrindole hydrochloride]", "values": [{"measurement": "Ki", "setting": "[9]; read-out: Ki for DOR, reference not given", "value": 0.02, "unit": "nM"}, {"measurement": "Ki", "setting": "[10]; read-out: Ki for MOR, reference not given", "value": 64, "unit": "nM"}, {"measurement": "% of maximal inhibition", "setting": "[4]", "value": "79 ± 6% and 48 ± 6%"}, {"measurement": "Log IC50", "setting": "[4]", "value": "−6.9 ± 0.1"}, {"measurement": "inhibition of methadone- and DAMGO-induced endocytosis of DOR/MOR heteromers", "setting": "[5]", "value": "significantly and selectively inhibited"}, {"measurement": "IC50", "setting": "[11]", "value": "63.1 nM and 251 nM"}, {"measurement": "IC50", "setting": "[12]", "value": 126, "unit": "nM"}, {"measurement": "% of maximal inhibition", "setting": "[8]", "value": "81 ± 3% and 94 ± 1%"}]}
